According to article PMC8362065, “Easily Available, Amphiphilic Diiron Cyclopentadienyl Complexes Exhibit in Vitro Anticancer Activity in 2D and 3D Human Cancer Cells through Redox Modulation Triggered by CO Release” (Chemistry (Weinheim an Der Bergstrasse, Germany), 2021):
One block for each compound: values may come before it.

How the values were obtained:
[1] = Octanol/water partition coefficient, shake-flask method and UV/Vis
Method: Octanol/water partition coefficients (log Pow ). Partition coefficients (P ow; IUPAC: K D partition constant[53]), defined as P ow=corg/caq, where corg and caq are molar concentrations of the selected compound in the organic and aqueous phase, respectively, were determined by the shake‐flask method and UV/Vis measurements.[[16a], [54]] Deionized water and octan‐1‐ol were vigorously stirred for 24 h, to enable saturation of both phases, then separated by centrifugation. A stock solution of the selected Fe compound (ca. 2 mg) was prepared by first adding acetone (50 μL, to help solubilization), followed by water‐saturated octanol (2.5 mL). The solution was diluted with water‐saturated octanol (ca. 1 : 3 v/v ratio, cFe2 ≈10^−4 M, so that 1.5≤A≤2.0 at λ max) and its UV/Vis spectrum was recorded ( A0/org ). An aliquot of the solution (V org=1.2 mL) was transferred into a test tube and octanol‐saturated water (V org=V aq=1.2 mL) was added. The mixture was vigorously stirred for 30 min at 21 °C then centrifuged (RCF 805, 5 min; Hettich EBA 8G). The UV/Vis spectrum of the organic phase was recorded ( Af/org ) and the partition coefficient was calculated as P ow= Af/org /( A0/org g− Af/org ) where A0/org and Af/org are the absorbance in the organic phase before and after partition with the aqueous phase, respectively.[53] For [2B]BF4, [2C]Cl and [3F]CF3SO3 an inverse procedure was followed, starting from a solution of the compound in octanol‐saturated water. The partition coefficient was calculated as P ow=( A0/aq − Af/aq )/ Af/aq where A0/aq and Af/aq are the absorbance in the aqueous phase before and after partition with the organic phase, respectively.

[2] = Stability in D2O, D2O/CD3OD and DMSO-d6/D2O at 37 °C by 1H NMR; format: physicochemical; conditions: D2O
Method: A detailed study on the behaviour of a selection of the diiron complexes in aqueous media was undertaken. Experimental procedures are provided in the Experimental Section and in the Supporting Information, with data collected in Tables 3, S3 and S4. […] The octanol/water partition coefficients (log P ow) were measured by a UV/Vis method and fall in between 0 and −1, reflecting an amphiphilic or slightly hydrophilic character. […] Conversely, those complexes with aromatic groups (i. e., 1H‐indol‐6‐yl, 2‐naphthyl and bis‐benzyl in [2A]^+, [3G]^+, [4G]^+ and [5H]^+) are less soluble in water and display increased affinity for n‐octanol (log P ow≈0). The diiron compounds are inert in aqueous solution at room temperature, and undergo a slow degradation at 37 °C. Under such conditions, a variable amount (50 to 86 %; Table S3) of the starting material was detected by ^1H NMR in D2O or D2O/CD3OD mixtures after 72 h.[33] During this time, the precipitation of a brown solid was observed, which in one case (from a [2C]CF3SO3 solution) was separated and identified as γ‐Fe2O3 by Raman analysis. In addition, headspace GC analyses performed on 5 % MeOH aqueous solutions of the compounds maintained at 37 °C allowed the identification and quantitation of the carbon monoxide released over a 48 h period (Table S4). These facts indicate that the thermal degradation process in aqueous solution leads to the progressive disassembly of the organometallic scaffold.[16] The presumed, controlled release of the iron centres (converted to iron oxide, see above) and carbon monoxide are two aspects that deserve attention with reference to the biological activity: note that the decay of ferrocene drug candidates into Fe^II ions was previously associated to their cytotoxicity,[34] while the activity of various iron carbonyl complexes was correlated to CO dissociation in the physiological media.[35]
(§1) Stability in water (D2O) and cell culture medium. The procedures are described in the Supporting Information, and data are collected in Table S3.
(§2) Table S3. Stability of diiron complexes in D2O, D2O/CD3OD, DMSO-d6/D2O and cell culture medium (DMEM-
(§3) d/CD3OD) solution at 37 °C calculated by 1H NMR (Me2SO2 internal standard).
(§4) % starting material (72 h) % starting material
(§5) Compound D O D O/CD OD DMSO-d /D O DMEM-d
(§6) [a] X = I for the stability in D 2O, X = CF3SO3 for the stability in cell culture medium. [b] Stability in D 2O and […]

[3] = Stability in cell culture medium (DMEM) at 37 °C by 1H NMR; format: physicochemical; conditions: DMEM-d (6.6 % CD3OD)
Method: Next, the stability of the diiron compounds in a cell culture medium (DMEM) solution at 37 °C, over a shorter time range (24 h), was assessed by ^1H NMR.
as §1, §2, §3, §4, §5, §6

[4] = test system: 3D cell spheroids of human ovarian (2008) cancer cells; test: Acid phosphatase (APH) assay, 3D spheroid culture; format: cell-based; conditions: 2008 spheroids, 72 h, APH test
Text: (§7) The remarkable cell‐killing effect observed in 2D cultured cells prompted us to evaluate the in vitro antitumor activity of the complexes on 3D cell cultures. Differently from 2D monolayer culture, 3D spheroid cell culture systems comprise cancer cells in various cell growth stages. Consequently, the multicellular cancer spheroid model is recognized to better reflect the tumour mass in vivo regarding drug permeation, cell interactions, gene expression, hypoxia and nutrient gradients with respect to monolayer cell cultures, making 3D models more predictive than conventional 2D monolayer cultures in screening antitumor drugs.[38] Table 6 summarizes the IC50 values obtained after treatment of 3D cell spheroids of human ovarian (2008) and pancreatic (PSN‐1) cancer cells with the diiron complexes and cisplatin.
(§8) Spheroid cultures. Spheroid cultures were obtained by seeding 2.5×10^3 cells/well in round bottom non‐tissue culture treated 96 well‐plate (Greiner Bio‐one, Kremsmünster, Austria) in phenol red free RPMI‐1640 medium (Sigma Chemical Co.), containing 10 % FCS and supplemented with 20 % methyl cellulose stock solution.
(§9) Acid phosphatase (APH) assay. An APH modified assay was used for determining cell viability in 3D spheroids, as previously described.[58] IC50 values were calculated with a four‐parameter logistic (4‐PL) model. All the values are the means ± SD of not less than four independent experiments.

[5] = test system: 3D cell spheroids of human pancreatic (PSN‐1) cancer cells; test: Acid phosphatase (APH) assay, 3D spheroid culture; format: cell-based; conditions: PSN‐1 spheroids, 72 h, APH test
Text: as §7, §8, §9

[6] = Solubility pattern of the isolated compound (qualitative); format: physicochemical; conditions: isolated solid
[7] = test system: Human breast (MCF‐7) carcinoma cell line; test: MTT assay, 2D cell culture; format: cell-based; conditions: 72 h
Method: (§10) Compounds [2B]BF4, [2C]CF3SO3, [2D]CF3SO3 and [3F]CF3SO3 were dissolved in water while the other compounds were dissolved in the minimum DMSO amount prior to cell culture testing. A calculated amount of the stock drug DMSO solution was added to the cell culture media to reach a final maximum DMSO concentration of 0.5 %, which had no effects on cell viability.
(§11) Cell cultures. Human colon (HCT‐15), pancreatic (PSN‐1) and breast (MCF‐7) carcinoma cell lines along with human melanoma cells (A375) were obtained from American Type Culture Collection (ATCC, Rockville, MD). Embryonic kidney HEK293 cells were obtained from the European Collection of Cell Cultures (ECACC, Salisbury, UK). Human ovarian 2008 cancer cells were kindly provided by Prof. G. Marverti (Dept. of Biomedical Science of Modena University, Italy). MCF‐7 ADR cells were kindly provided by Prof. N. Colabufo (Dept. Pharmacy, University of Bari, Italy). Cell lines were maintained in the logarithmic phase at 37 °C in a 5 % CO2 atmosphere using the following culture media containing 10 % fetal calf serum (Euroclone, Milan, Italy), antibiotics (50 units/mL penicillin and 50 μg/mL streptomycin) and 2 mM L‐glutamine: i) RPMI‐1640 medium (Euroclone, Milan, Italy) for PSN‐1, 2008, HCT‐15, MCF‐7 and MCF‐7 ADR cells; ii) DMEM for A375 and HEK293 cells.
(§12) MTT assay. The growth inhibitory effect towards tumour cells was evaluated by means of MTT assay as previously described.[57] Briefly, 3–8×10^3 cells/well, dependent upon the growth characteristics of the cell line, were seeded in 96‐well microplates in growth medium (100 μL). After 24 h, the medium was removed and replaced with a fresh one containing the compound to be studied at the appropriate concentration. Triplicate cultures were established for each treatment. After 24 or 72 h, each well was treated with 10 μL of a 5 mg/mL MTT saline solution, and following 5 h of incubation, 100 μL of a sodium dodecyl sulfate (SDS) solution in HCl 0.01 M were added. After an overnight incubation, cell growth inhibition was detected by measuring the absorbance of each well at 570 nm using a Bio‐Rad 680 microplate reader. Mean absorbance for each drug dose was expressed as a percentage of the control untreated well absorbance and plotted against drug concentration. IC50 values, the drug concentrations that reduce the mean absorbance at 570 nm to 50 % of those in the untreated control wells, were calculated by the four‐parameter logistic (4‐PL) model. Evaluation was based on means from at least four independent experiments.

[8] = test system: MCF‐7 ADR cells; test: MTT assay, multidrug-resistant cancer cell model overexpressing P-gp; format: cell-based, human
Method: The antiproliferative activity was also investigated in a multidrug‐resistant cancer cell model overexpressing P‐gp (MCF‐7 ADR cells).
as §10, §11, §12

[9] = test system: Human colon (HCT‐15) carcinoma cell line; test: MTT assay, 2D cell culture; format: cell-based; conditions: HCT‐15 cells, 72 h
Method: as §10, §11, §12

[10] = test system: Human ovarian 2008 cancer cells; test: MTT assay, 2D cell culture; format: cell-based; conditions: 2008 cells, 72 h
Method: as §10, §11, §12

[11] = test system: Human pancreatic (PSN‐1) carcinoma cell line; test: MTT assay, 2D cell culture; format: cell-based; conditions: PSN‐1 cells, 72 h, read-out: IC50 (μM)±SD
Method: as §10, §11, §12

[12] = test system: human melanoma cells (A375); test: MTT assay, 2D cell culture; format: cell-based; conditions: 72 h
Method: as §10, §11, §12

[13] = test system: Embryonic kidney HEK293 cells; test: MTT assay, noncancerous cell line; format: cell-based, human; conditions: 72 h
Method: As one of the main drawbacks of chemotherapeutics is the toxic effect toward noncancerous cells, we measured the cytotoxicity of tested complexes against a noncancerous cell line (HEK293) and calculated the selectivity index (SI, defined as the ratio between the IC50 value in noncancerous cells and the corresponding average IC50 value related to cancer cells; Table 5).
as §10, §11, §12

[14] = test system: 3D cell spheroids of human ovarian (2008) cancer cells; test: Acid phosphatase (APH) assay, 3D spheroid culture; format: cell-based; conditions: 2008 cell line

Compound: [Fe2Cp2(CO)2(μ‐CO){μ‐CNMe(C6H11)}]X [[2C]Cl]
- Log P ow ([1]; octanol/water, 21 °C): −1.1±0.08
- % starting material (72 h) [2]: 79%
- % starting material (24 h) [3]: 88%

Compound: [Fe2Cp2(CO)2(μ‐CO){μ‐CNMe(CH2CHCH2)}]X [[3F]I]
- Solubility in water (qualitative) [6]: poorly soluble

Compound: O=C1C=CC(=O)c2ccccc21 [Naphthoquinone, reference compound]
- logP at 30 min [1]: 1.8 ± 0.2

Compound: N.N.[Cl][Pt][Cl] [cisplatin, reference compound]
- IC50 ([7]; MCF‐7 cells): 8.8 ± 0.2 µM
- IC50 [9]: 16.5 ± 2.2 µM
- IC50 [10]: 2.2 ± 1.4 µM
- IC50 [11]: 12.1 ± 2.9 µM
- IC50 [12]: 2.1 ± 0.3 µM
- IC50 ([13]; HEK293 noncancerous cells, MTT): 18.1 ± 3.6 µM
- SI (selectivity index) ([13]; IC50 in noncancerous HEK293 cells / average IC50 in cancer cells): 2.2
- IC50 [4]: 57.6 ± 3.6 µM
- IC50 [5]: 61.7 ± 12.1 µM
- IC50 ratio related to 3D and 2D experiments [14]: 26

Second part, the compound after the results:

- IC50±SD (μM) [4]: ineffective
- IC50±SD (μM) [5]: ineffective
Compound: [Fe2Cp2(CO)2(μ‐CO){μ‐CNMe(CH2PO3Et2)}]X [[2B]CF3SO3]

- Solubility in water (qualitative) [6]: sparingly soluble
Compound: [Fe2Cp2(CO)2(μ‐CO){μ‐CNMe(2‐naphthyl)}]I [[3G]I]

- % starting material (72 h) [2]: 60%
- % starting material (24 h) [3]: 84%
Compound: [Fe2Cp2(CO)2(μ‐CO){μ‐CNMe(CH2CHCH2)}]X [[3F]X]

- IC50 ([7]; Homo sapiens, MCF7, MCF‐7 cells): 0.2 ± 0.03 µM
- IC50 ([8]; Homo sapiens, NCI/ADR-RES, MCF‐7 ADR cells, 72 h, MTT): 7.8 ± 2.2 µM
- RF=IC50 (resistant cells)/IC50 (wild‐type cells) ([8]; MCF‐7 ADR vs MCF‐7, 72 h): 39
Compound: COc1cccc2c1C(=O)c1c(O)c3c(c(O)c1C2=O)C[C@@](O)(C(=O)CO)C[C@@H]3O[C@H]1C[C@H](N)[C@H](O)[C@H](C)O1 [doxorubicin, reference compound]
